The source of these data is paper PMC11574108, “4-Furanylvinylquinoline derivative as a new scaffold for the design of oxidative stress initiator and glucose transporter inhibitor drugs” (Scientific Reports, 2024).

Common to all, as to type: cell-based, human
In assay [1] the test system is HCT 116 p53+/+. Briefly: Intracellular ROS level measurement (CellROX Green). Particulars: 1 µM, 24 h. As for the experimental part: (§1) The cells (9,000 per well) were seeded in 96-well plates and treated with at freshly prepared 1 µM solution of 13 for 3, 6, 9, 12, and 24 h. The ROS levels were measured immediately according to the CellROX Green Reagent procedure. Additionally, the number of cells in each well during measurement was estimated using Hoechst 33,342 (Molecular Probes™). Briefly, after treatment the medium was removed and […] mixture of CellROX Green Reagent ([…]) and Hoechst 33,342 ([…]) was added to each well. The plates were incubated for 30 min at 37 °C in the dark, and the fluorescence of samples was then measured using a multiplate reader (Synergy 4, Bio Tek). Readings were performed at 485 nm excitation and 520 nm emission, as well as at 345 nm excitation and 485 nm emission for the CellROX Green Reagent and Hoechst 33,342, respectively. ROS levels were calculated as the percentage relative to the untreated cell levels (control). The experiments were carried out three times.
(§2) To determine the ROS level, the fluorescent CellROX Green Reagent was used, being measured by a spectroscopic multi-plate reader. […] The ROS level was several percent higher compared to the control after only 3 h. After 24 h the amount of ROS increased by as much as 50% relative to the untreated cells. Similar observations were made in the case of the HCT 116 p53^+/+ cells. However, the generation of ROS was less pronounced, especially at the first time points. Nevertheless, after 24 h, the level of ROS was about 40% higher. […] The highest (20% growth) occurred after 9 h and 24 h. […] The intracellular ROS levels are rapidly regulated by activated p53, which initially decreases and then subsequently increases them[42]. The weaker response toward ROS generation in these cells might have been caused by the fact that U-251 cells are resistant to exposure to oxidative stress. […] Additionally, cancer cells with a p53 mutation have a higher level of ROS than those with the wild type. Some p53 mutants can gain oncogenic features that are described as “gain-of-function” (GOF), among them being U-251 cells. […]

Assay [2] concerns U-251. Described as above. Particulars: 1 µM, after 9 h and 24 h. As for the experimental part:
as §1, §2

Assay [3] concerns HCT 116 p53-/-. The description is as above. Particulars: 1 µM, 24 h. As for the experimental part:
as §1, §2

The subject of assay [4] is HCT 116 p53+/+ spheroids. Nature of the assay: 3D spheroid cell viability assay. Particulars: 3D spheroids, CellTiter-Glo 3D, 72-h treatment, read-out: IC50 HCT 116 p53+/+ (3D model). As for the experimental part:
The HCT 116 cell lines, AsPC-1, PANC-1 (5,000), and U-251 cells (8,000) in 100 µL of medium were seeded in 96-well ULA Corning spheroid microplates (Sigma-Aldrich) and incubated for 72 h at 37 °C to form spheroids. The medium from each well was then gently removed and freshly prepared solutions of 13 were added. The treated spheroids were incubated for the next 72-h. Afterward, cell viability assays were performed using CellTiter-Glo 3D Reagent (Promega) according to the manufacturer’s protocol. Briefly, CellTiter-Glo 3D Reagent was added in equal volume to the medium in each well. The plate was vigorously mixed for 5 min and then incubated for 25 min at room temperature. The luminescence was measured using a multiplate reader (Synergy 4, BioTek). The experiment for each sample was performed at least three times. The results from the assay are presented as IC50 values, which were calculated using GraphPad Prism v.8.0 (USA).
To confirm the cytotoxicity ranking, the viability of the cells was also estimated on a 3D spheroid model, which better represented a solid tumour. […] The cell lines that represented pancreatic cancer were less responsive to derivative 13, which was similar to the 2D model. […]
A general note: ATP-based viability assays read luminescence as a measure of living cells.

Assay [5] relates to CDK1. Briefly: qRT-PCR, CDK1 mRNA expression. Conditions: for CDK1 mRNA level vs control: HCT 116 p53-/-, 24 h. As for the experimental part: The cells were seeded in 35 mm Petri dishes at a density of 500,000 cells and incubated at 37 °C for 24 h. The total RNA was isolated after incubation with solutions of 13 (0.5 µM and 1.0 µM) for 24 h and 48 h, respectively. The isolation from the samples was carried out according to a TRIzol™ Reagent protocol (Thermo Fisher Scientific). Synthesis of cDNA was performed with 2 µg of total RNA using a GoScript™ Reverse Transcriptase kit (Promega) with Oligo(dT)23 Primers. Real-Time PCR was carried out using a CFX96 Touch™ Real-Time PCR Detection System (Bio-Rad) in 10 µL reaction volume. Each sample contained SsoAdvanced™ Universal SYBR Green Supermix (Bio Rad), a specific primer pair mix (0.5 µM each), and 1 µL of cDNA. The reaction was performed under the following conditions: initial denaturation at 95 °C for 30 s; 40 cycles of denaturation at 95 °C for 15 s; annealing (primer-specific temperature) for 30 s, and extension at 72 °C for 60 s. The obtained data were analysed based on a comparison of the expression of the target genes and normalized to a reference gene (GAPDH) using the Livak-Schmittgen (2^−ΔΔCT) method. The experiments were performed at least three times.
In the next step, we decided to investigate the impact of derivative 13 on the mRNA level of CDK1 (the gene encoding one of the cell cycle regulation proteins) at various concentrations and time points (Fig. 4B). In the HCT 116 p53^+/+ cells after the application 0.5 µM of derivative 13, we noticed a slight increase in the expression of CDK1 after both 24 and 48-h. […] However, after a further incubation time, the mRNA level of this gene was similar to that in the untreated cells.
A general note: In qPCR the cycle at which signal appears reflects the starting amount.

The structures appear in SMILES notation. Read-outs that look alike come from different tables or passages of the source.

On to `O=[N+]([O-])c1ccc(/C=C/c2ccnc3ccccc23)o1` [Compound 13], for which the “ROS level increase relative to untreated cells” value is “about 40%” in assay [1], 20% in assay [2] and 50% in assay [3]. In addition, the IC50 in assay [4] is 1160 ± 190 nM; in assay [4] (Homo sapiens, HCT-116, 72 h), about 1000 nM. Further, the “CDK1 mRNA level vs control” value is “two-fold higher” in assay [5] (0.5 µM); “around one and the half times” in assay [5] (1 µM). Further, in assay [5] (U-251, 24 h), the “CDK1 mRNA expression vs control” value was “greater than two-fold upregulation”.
